Tests used:
Assay in all cases: Kinase selectivity, DiscoverX scanMAX Kinase assay panel (% control)
Type in all cases: binding
[1] = molecular target: T1, kinases of the scanMAX Kinase assay panel (Homo sapiens, UniProt Q9H2G2); conditions: kinase SLK; 1 uM in DMSO
T1 construct: purchased DiscoverX Co. (contract measurement) scanMAX Kinase assay panel
Outline: (§1)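 Percent of control computed as (compound − positive control)/(negative control − positive control) × 100, DMSO defining 100% and positive control 0%. Each panel kinase exposed to 1 uM compound; values under 35% taken to mean the compound acts on that kinase.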

[2] = molecular target: T2, kinases of the scanMAX Kinase assay panel (Homo sapiens, UniProt Q9NYL2); conditions: kinase ZAK; 1 uM in DMSO
T2 construct: purchased DiscoverX Co. (contract measurement) scanMAX Kinase assay panel
Outline: as §1

[3] = molecular target: T3, kinases of the scanMAX Kinase assay panel (Homo sapiens, UniProt O15146); conditions: MUSK; 1 uM
T3 construct: purchased DiscoverX Co. (contract measurement) scanMAX Kinase assay panel
T3 sequence (O15146 24-869): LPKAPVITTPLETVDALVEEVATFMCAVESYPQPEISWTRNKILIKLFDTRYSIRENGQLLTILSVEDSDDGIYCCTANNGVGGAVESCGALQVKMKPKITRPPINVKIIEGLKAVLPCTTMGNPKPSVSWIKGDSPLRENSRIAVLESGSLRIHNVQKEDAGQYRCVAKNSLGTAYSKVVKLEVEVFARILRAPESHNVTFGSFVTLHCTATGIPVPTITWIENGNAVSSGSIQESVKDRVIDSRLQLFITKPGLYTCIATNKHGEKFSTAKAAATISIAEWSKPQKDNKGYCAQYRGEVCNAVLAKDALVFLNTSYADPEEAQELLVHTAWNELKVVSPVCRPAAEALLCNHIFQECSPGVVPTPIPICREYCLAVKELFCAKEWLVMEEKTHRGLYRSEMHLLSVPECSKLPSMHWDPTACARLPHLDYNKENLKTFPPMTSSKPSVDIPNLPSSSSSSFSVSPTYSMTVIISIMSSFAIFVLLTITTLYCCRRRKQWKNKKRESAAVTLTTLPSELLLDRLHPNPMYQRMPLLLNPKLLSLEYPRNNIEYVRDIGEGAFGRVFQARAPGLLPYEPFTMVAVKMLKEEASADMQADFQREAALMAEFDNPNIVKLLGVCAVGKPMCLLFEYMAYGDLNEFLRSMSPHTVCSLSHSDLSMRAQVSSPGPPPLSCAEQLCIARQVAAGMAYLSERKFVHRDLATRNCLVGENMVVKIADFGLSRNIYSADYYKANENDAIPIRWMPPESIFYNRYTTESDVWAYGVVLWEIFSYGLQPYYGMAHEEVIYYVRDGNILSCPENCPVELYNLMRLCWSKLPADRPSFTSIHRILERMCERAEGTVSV
Outline: as §1

[4] = molecular target: T4, kinases of the scanMAX Kinase assay panel (Homo sapiens, UniProt O75716); conditions: kinase STK16; 1 uM in DMSO
T4 construct: purchased DiscoverX Co. (contract measurement) scanMAX Kinase assay panel
Outline: as §1

[5] = molecular target: T5, kinases of the scanMAX Kinase assay panel (Homo sapiens, UniProt Q8TDC3); conditions: BRSK1; 1 uM
T5 construct: purchased DiscoverX Co. (contract measurement) scanMAX Kinase assay panel
T5 sequence (Q8TDC3 1-778): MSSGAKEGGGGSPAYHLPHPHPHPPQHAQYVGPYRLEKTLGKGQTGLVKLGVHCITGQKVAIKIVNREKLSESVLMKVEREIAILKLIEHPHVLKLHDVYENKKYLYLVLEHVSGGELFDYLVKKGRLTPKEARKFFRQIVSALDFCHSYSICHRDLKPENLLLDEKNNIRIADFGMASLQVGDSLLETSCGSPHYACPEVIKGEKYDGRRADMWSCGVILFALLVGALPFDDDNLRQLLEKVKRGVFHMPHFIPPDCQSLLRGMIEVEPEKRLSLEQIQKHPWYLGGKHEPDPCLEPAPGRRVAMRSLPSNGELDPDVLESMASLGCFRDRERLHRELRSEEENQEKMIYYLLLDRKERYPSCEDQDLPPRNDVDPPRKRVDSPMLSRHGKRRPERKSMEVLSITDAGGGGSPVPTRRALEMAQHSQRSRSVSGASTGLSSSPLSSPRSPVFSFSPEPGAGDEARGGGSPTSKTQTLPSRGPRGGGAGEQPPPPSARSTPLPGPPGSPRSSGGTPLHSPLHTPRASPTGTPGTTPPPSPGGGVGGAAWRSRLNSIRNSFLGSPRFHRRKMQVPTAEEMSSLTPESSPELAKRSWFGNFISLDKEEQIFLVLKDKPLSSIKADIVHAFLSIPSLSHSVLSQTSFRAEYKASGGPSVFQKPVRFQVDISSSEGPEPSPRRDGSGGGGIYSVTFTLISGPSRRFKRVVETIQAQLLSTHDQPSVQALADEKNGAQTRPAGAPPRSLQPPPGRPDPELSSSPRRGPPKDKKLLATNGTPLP
Outline: as §1

[6] = molecular target: T6, kinases of the scanMAX Kinase assay panel (Homo sapiens, UniProt Q9BQI3); conditions: EIF2AK1; 1 uM
T6 construct: purchased DiscoverX Co. (contract measurement) scanMAX Kinase assay panel
Outline: as §1

[7] = molecular target: T7, kinases of the scanMAX Kinase assay panel (Homo sapiens, UniProt O43353); conditions: kinase RIPK2; 1 uM in DMSO
T7 construct: purchased DiscoverX Co. (contract measurement) scanMAX Kinase assay panel
Outline: as §1

[8] = molecular target: T8, kinases of the scanMAX Kinase assay panel (Homo sapiens, UniProt P78368); conditions: CSNK1G2; 1 uM
T8 construct: purchased DiscoverX Co. (contract measurement) scanMAX Kinase assay panel
Outline: as §1

[9] = molecular target: T9, kinases of the scanMAX Kinase assay panel (Homo sapiens, UniProt Q16539); conditions: p38-alpha; 1 uM
T9 construct: purchased DiscoverX Co. (contract measurement) scanMAX Kinase assay panel
Outline: as §1

T8 sequence (P78368 whole entry): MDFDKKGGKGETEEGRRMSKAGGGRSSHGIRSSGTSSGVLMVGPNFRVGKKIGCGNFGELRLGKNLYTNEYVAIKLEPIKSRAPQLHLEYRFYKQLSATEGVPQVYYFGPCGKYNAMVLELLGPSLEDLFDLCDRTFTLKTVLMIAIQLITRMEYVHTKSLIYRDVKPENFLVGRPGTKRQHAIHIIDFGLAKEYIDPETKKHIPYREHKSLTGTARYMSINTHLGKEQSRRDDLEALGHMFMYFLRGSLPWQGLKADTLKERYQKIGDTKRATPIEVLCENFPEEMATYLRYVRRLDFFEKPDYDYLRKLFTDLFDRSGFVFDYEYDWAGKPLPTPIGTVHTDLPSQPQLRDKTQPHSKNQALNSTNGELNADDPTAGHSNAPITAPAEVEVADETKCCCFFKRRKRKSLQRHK
T6 sequence (Q9BQI3 whole entry): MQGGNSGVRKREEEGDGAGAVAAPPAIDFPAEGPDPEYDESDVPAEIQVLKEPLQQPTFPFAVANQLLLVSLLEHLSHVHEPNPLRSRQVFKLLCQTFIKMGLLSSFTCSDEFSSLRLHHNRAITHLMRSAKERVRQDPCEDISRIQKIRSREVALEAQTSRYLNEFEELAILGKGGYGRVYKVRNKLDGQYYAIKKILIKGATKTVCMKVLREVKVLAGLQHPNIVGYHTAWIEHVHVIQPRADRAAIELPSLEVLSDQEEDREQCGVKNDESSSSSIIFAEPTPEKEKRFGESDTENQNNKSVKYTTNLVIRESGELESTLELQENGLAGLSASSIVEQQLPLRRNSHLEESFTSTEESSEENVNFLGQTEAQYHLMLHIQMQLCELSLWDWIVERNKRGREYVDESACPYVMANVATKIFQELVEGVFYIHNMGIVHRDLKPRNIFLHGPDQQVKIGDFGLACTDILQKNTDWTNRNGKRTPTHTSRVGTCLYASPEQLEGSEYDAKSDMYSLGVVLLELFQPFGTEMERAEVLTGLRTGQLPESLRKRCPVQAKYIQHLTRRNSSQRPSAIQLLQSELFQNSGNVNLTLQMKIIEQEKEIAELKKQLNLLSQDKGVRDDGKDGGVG
T1 sequence (Q9H2G2 whole entry): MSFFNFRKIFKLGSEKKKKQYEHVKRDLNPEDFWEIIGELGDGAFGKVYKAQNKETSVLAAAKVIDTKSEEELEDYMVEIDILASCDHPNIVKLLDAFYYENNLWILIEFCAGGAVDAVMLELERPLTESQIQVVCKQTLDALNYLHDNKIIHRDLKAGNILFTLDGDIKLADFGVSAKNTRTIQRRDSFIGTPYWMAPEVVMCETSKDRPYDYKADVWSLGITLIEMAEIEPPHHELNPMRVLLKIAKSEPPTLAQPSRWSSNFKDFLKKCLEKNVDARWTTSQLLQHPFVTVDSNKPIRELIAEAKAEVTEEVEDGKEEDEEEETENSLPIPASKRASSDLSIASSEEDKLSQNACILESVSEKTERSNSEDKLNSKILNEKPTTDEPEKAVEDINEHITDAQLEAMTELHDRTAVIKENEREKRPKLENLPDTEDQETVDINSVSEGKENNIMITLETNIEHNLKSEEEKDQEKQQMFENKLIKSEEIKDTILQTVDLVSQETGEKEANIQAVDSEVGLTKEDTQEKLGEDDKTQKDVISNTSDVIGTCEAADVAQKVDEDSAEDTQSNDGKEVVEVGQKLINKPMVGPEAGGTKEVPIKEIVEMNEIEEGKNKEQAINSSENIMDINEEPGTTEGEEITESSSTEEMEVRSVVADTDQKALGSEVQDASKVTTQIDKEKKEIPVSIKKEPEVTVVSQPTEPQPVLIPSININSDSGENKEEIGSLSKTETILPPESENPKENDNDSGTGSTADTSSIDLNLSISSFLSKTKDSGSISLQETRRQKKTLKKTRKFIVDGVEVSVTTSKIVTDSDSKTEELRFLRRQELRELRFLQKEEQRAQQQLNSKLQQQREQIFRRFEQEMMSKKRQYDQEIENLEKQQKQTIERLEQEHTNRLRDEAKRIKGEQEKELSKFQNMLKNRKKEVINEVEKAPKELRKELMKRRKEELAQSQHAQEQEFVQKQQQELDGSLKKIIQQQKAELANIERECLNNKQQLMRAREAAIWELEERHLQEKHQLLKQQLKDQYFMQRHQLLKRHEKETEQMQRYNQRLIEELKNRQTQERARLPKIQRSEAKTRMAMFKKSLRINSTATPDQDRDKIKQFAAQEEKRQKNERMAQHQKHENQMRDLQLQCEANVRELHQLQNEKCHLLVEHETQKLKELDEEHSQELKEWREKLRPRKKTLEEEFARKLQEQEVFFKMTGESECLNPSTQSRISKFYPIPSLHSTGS
T9 sequence (Q16539 whole entry): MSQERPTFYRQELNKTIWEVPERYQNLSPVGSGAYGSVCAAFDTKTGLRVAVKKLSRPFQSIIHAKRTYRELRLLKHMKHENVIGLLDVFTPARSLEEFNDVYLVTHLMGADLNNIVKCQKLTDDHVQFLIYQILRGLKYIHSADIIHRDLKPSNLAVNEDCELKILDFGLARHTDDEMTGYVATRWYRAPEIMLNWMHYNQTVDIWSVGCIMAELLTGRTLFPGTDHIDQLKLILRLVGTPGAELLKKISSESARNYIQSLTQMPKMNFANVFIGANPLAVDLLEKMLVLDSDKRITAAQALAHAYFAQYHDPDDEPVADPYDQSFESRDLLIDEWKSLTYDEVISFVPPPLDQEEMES
T2 sequence (Q9NYL2 whole entry): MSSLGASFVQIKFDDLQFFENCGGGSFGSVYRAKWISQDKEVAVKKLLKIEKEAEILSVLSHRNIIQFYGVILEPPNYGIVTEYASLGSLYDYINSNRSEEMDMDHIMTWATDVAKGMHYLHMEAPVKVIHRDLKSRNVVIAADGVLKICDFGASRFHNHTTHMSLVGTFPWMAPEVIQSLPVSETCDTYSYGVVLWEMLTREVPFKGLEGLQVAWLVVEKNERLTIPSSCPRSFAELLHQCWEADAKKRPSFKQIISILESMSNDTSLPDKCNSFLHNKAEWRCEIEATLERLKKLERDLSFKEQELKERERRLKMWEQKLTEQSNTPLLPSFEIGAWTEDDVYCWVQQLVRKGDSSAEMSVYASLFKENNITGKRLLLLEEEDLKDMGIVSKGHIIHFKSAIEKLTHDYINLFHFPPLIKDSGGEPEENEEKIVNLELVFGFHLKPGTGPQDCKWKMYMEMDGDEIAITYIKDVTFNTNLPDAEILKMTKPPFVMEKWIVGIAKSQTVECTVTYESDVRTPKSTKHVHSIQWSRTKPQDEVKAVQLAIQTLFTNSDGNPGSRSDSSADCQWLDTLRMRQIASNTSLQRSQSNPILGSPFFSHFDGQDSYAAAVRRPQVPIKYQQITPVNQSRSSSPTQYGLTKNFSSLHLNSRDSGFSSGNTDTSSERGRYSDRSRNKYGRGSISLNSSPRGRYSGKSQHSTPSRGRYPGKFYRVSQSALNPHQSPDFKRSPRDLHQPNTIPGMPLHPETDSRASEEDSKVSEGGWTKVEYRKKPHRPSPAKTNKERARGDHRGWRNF
T4 sequence (O75716 whole entry): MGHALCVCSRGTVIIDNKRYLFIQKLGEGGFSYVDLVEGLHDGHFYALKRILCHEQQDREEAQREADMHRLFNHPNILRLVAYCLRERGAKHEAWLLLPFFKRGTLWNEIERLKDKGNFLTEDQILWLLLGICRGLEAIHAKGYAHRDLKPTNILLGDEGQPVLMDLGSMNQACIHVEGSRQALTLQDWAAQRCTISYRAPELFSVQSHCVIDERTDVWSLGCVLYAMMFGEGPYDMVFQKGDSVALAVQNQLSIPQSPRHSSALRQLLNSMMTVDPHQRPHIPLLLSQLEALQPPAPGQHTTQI
T7 sequence (O43353 whole entry): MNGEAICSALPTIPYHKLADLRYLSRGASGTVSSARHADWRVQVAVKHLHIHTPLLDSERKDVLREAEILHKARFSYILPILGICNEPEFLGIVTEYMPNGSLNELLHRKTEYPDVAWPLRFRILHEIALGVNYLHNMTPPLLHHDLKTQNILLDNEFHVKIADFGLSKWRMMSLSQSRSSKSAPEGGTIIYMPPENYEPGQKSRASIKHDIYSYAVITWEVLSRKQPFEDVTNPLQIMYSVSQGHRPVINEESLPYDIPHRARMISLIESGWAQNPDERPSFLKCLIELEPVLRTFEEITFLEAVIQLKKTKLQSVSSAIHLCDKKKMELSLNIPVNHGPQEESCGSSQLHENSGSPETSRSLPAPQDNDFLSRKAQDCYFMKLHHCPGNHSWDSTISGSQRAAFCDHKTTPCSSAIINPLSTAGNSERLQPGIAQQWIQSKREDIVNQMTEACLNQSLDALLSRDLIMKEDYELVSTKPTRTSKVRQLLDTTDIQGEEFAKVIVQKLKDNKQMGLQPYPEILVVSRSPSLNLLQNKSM

| Structure (SMILES) | remaining binding at 1 µM [1] | remaining binding at 1 µM [2] | remaining binding at 1 µM [3] | remaining binding at 1 µM [4] | remaining binding at 1 µM [5] | remaining binding at 1 µM [6] | remaining binding at 1 µM [7] | remaining binding at 1 µM [8] | remaining binding at 1 µM [9] |
| --- | --- | --- | --- | --- | --- | --- | --- | --- | --- |
| CC1(Nc2nc(Nc3cnn([C@H]4CCN(C5COC5)C[C@@H]4F)c3Cl)nc3[nH]cc(C#N)c23)CC1 [Example 52, 2-((5-chloro-1-((3S,4S)-3-fluoro-1-(oxetane-3-yl)piperidine-4-yl)-1H-pyrazole-4-yl)amino)((1-methylcyclopropyl)amino)-7H-pyrrolo[2,3-d]pyrimidine-5-carbonitrile] | 13% | 88% | 100% | 0.35% | 96% | 86% | 61% | 0.1% | 91% |
| CNc1nc(Nc2ccc(C(=O)N3CCOCC3)cc2OC)nc2[nH]cc(C#N)c12 [Example 1, 2-((2-methoxy-4-(morpholine-4-carbonyl)phenyl)amino)-4-(methylamino)-7H-pyrrolo[2,3-d]pyrimidine-5-carbonitrile] | 100% | 100% | 97% | 74% | 97% | 64% | 100% | 58% | 94% |
| CCNc1nc(Nc2ccc(C(=O)N3CCC(N4CCOCC4)CC3)cc2OC)nc2[nH]cc(C(F)(F)F)c12 [Example 104, (4-((4-(ethylamino)-5-(trifluoromethyl)-7H-pyrrolo[2,3-d]pyrimidine-2-yl)amino)-3-methoxyphenyl)(4-morpholinopiperidine-1-yl)methanone] | 97% | 100% | 94% | 69% | 100% | 90% | 100% | 100% | 96% |
